Our source for the melting point values is a melting point compilation (Tetko et al.; mined from patent text by program, amines drawn as free bases though some values may be those of a salt).

For orientation: melting point means the temperature, or range, at which the solid turns liquid. In turn, `CCOc1ccc(C2(C(=O)Oc3ccc(C(=O)NO)cc3)CCCCC2)cc1` gave a melting point of 140 to 143 °C. Compound `O=S(=O)(c1c(Br)c(Br)n(CCl)c1-c1ccc(Cl)cc1)C(F)(F)F` had a melting point of 153 to 156 °C.

The compound `CCN1CCCN(c2c(C)cccc2Cl)C1=S` had a melting point of 88 to 90 °C. Compound `COc1ccc2nc3c(cc2c1)c(N)nn3C` yielded a melting point of 185 to 186 °C.

Regarding `Cc1ccc2nc3cc(C)c(=O)cc-3sc2c1`, the melting point was 177 °C. To `CCOC1CC(n2cc(CC)c(=O)[nH]c2=O)OC1CO` (centres undefined) belongs 157 °C; to `CC(=O)SCCC(=O)N1c2ccc(Cl)cc2CCC1C(=O)O` (centres undefined), 134 to 136 °C; to `O=c1oc2ccccc2c(O)c1C(Sc1ccc(Cl)cc1)c1cc(F)ccc1F` (centres undefined), 146 to 147 °C. The figure for `Nc1ccc(CCN2CCC(Nc3nc4ccccc4n3Cc3ccc(F)cc3)CC2)cc1` is 195 °C; for `COc1cc(COc2nn(-c3ccccc3)cc2/C=C/c2nc(C(=O)O)cs2)ccc1OCc1nc(-c2ccco2)oc1C` it is 170 to 172 °C.

With `CCC1(Cc2ccccc2)CCNC1=O` (centres undefined), the melting point was 89 to 90 °C. To `COCCOCCOc1cc(OC)c(/C=C/C(=O)c2ccc(C(=O)O)cc2)cc1-c1cccs1` belongs 174 to 175 °C. Consider `COc1ccc(C#N)cc1C(=O)NCCN1CCC(=C(O)c2ccc(F)cc2)CC1`, for which the melting point is 135 to 137 °C. The figure for `Cc1c(Br)cc2c(c1C)OC(=O)C2(C)c1ccc(C(C)C)cc1` (centres undefined) is 116 to 117 °C; for `O=C(O)C1=C2OCOc3cccc1c32` it is 125 °C. As for `NC(=O)CNC(=O)c1cccc(-c2cccc3cc(CCc4cccc(C(F)(F)F)c4)sc23)c1`, the melting point fell in the range of 153 to 154 °C. To `N#Cc1ccccc1C1CNC([N+](=O)[O-])CCN1` (centres undefined) belongs 101 °C. Compound `CCOC(=O)C1CCn2c(cc3ccccc32)C1OC(C)=O` (centres undefined) came in with a melting point of 98 to 100 °C.

In the case of `O=C(O)c1ccc(Cl)nc1NCc1ccncc1`, the melting point fell in the range of 217 to 220 °C. To `CCC(=O)c1cnc2c(O)cccc2c1Nc1ccccc1C` belongs 125 to 128 °C. To `COC(=O)C=Cc1cncc2ccccc12` belongs 79 to 80 °C; to `Cc1ccc2cccnc2c1C(=O)Nc1nnn[nH]1`, 285 to 287 °C. To `COc1ccc(C2=NNC(=O)CC2c2ccc(OC)c(F)c2)cc1F` (centres undefined) belongs 196 to 198 °C; to `CC(C)COc1ccccc1-c1ncc(C#N)c(=O)[nH]1`, 186 to 187 °C. In turn, `NC(=O)OCCn1nccc1-c1ccc(Oc2ccc(F)cc2)cc1` registered a melting point of 120 to 125 °C. To `COc1ccc(C2CCN(C(=O)C(=O)NO)CC2)cc1C=C1CCCC1` belongs 127 to 128 °C; to `CC(C)c1nn(-c2ccccn2)c(-c2ccc(F)cc2)c1/C=C/CO`, 106 to 109 °C. The figure for `CC(=C1SC(=O)NC1=O)c1ccc(OCCOc2c(-c3cc(F)ccc3C)n(C)c3ccccc3c2=O)cc1` is 192 to 196 °C. The figure for `COc1cccc(C(C)NC(=O)CCc2cnoc2-c2ccc(Cl)cc2)c1` (centres undefined) is 89 to 90 °C; for `N#Cc1cc(C(=O)NNC(=O)c2occc2-c2ccccc2Oc2ccccc2)ccc1O` it is 134 to 135 °C. With `Cc1c(-c2cccc(F)c2)nc2n1CCc1ccccc1C2OC1CCN(C)CC1` (centres undefined), the melting point came out at 132 °C. In the case of `COc1ccc2c(c1)C(=O)c1c-2c(NCCCN(C)C)nc2ccccc12`, the melting point fell in the range of 113 to 114 °C. As for `OC[C@@H](COc1ccccc1)OC1CCCCO1` (some centres undefined), the melting point lay within 39 to 41 °C.

In turn, `CCN1c2ncccc2C(=O)N(C)c2ccc(OC)nc21` returned a melting point of 116 to 118 °C. Consider `COC(=O)c1ccc(/C=C/C(=O)O)c(Cl)c1`, for which the melting point stood at 221 °C. In turn, `O=C1OC(=O)c2cc(C(F)(F)F)ccc21` returned a melting point of 54 °C. Regarding `CNc1ccc([N+](=O)[O-])cc1[N+](=O)[O-]`, the melting point was 177 to 178 °C. `CN1CS(=Nc2ccc3[nH]nnc3c2)c2ccccc21` (centres undefined) returned a melting point of 240 °C. The figure for `c1ccc2c(c1)nc1snc(-c3cnccn3)n12` is 255 to 256 °C; for `CSC(=C[N+](=O)[O-])NCCSCc1ncccc1Br` it is 79 to 80 °C. `CCCCCCCCCCc1ccc(NC(=O)c2cnc(C(=O)NCC(=O)OCC)c(OC)c2)cc1` came in with a melting point of 155 to 157 °C. For the compound `O=P(O)(O)C(c1cccc(C(F)(F)F)c1)c1cccc(C(F)(F)F)c1`, the melting point was in the range of 191 to 193 °C. Regarding `COc1ccc(-c2nc3ccc(C(C)(C)CNC=O)cc3[nH]2)cn1`, the melting point was 217 to 221 °C. Consider `COc1ccc(C(=O)Cc2ccccc2)c(O)c1`, for which the melting point was 87 to 88 °C.

`CCOC(=O)C1=Cc2c(OC)ccc(OC)c2CC1` yielded a melting point of 74 to 76 °C. Compound `O=C1CC(SCc2ccccc2)C(O)(c2ccccc2)C(SCc2ccccc2)C1` (centres undefined) yielded a melting point of 120 °C.

For `NC(=O)N1CCC(=O)C(C(c2ccccc2)c2ccccc2)C1` (centres undefined), the melting point lay within 88 to 89 °C. Consider `CC(C)Oc1ccc2c(c1)OC(C(F)(F)F)C(C(=O)O)=C2` (centres undefined), for which the melting point was in the range of 161 to 163 °C. The figure for `CCc1nc2c(C)c(S(=O)(=O)N(C)C)c(C)nc2[nH]1` is 179 to 182 °C; for `Cc1ncc(C#N)c(Nc2ccc3[nH]ccc3c2C)c1I` it is 222 to 223 °C; for `O=C(Nc1cc(-c2nc(Cc3ccccc3)c[nH]2)ccn1)c1ccccc1` it is 110 to 112 °C.

In turn, `CCCc1nc2c(N)nc3cc(-c4ccccc4)ccc3c2n1CCCC(C)=NOC` gave a melting point of 191 to 192 °C. To `COC(=O)c1c(O)c2c([nH]c1=O)CCCCC2` belongs > 255 °C. The figure for `C[C@H](NC(=O)CCn1cc(C2=C(c3cn(C)c4ccccc34)C(=O)NC2=O)c2ccccc21)C(=O)NCC(=O)N[C@@H](CCCCN)C(N)=O` is 158 to 160 °C; for `CCCCn1nc(SCc2ccc(OC)cc2)c(C(=O)O)c1Cc1cc2c(cc1Cl)OCO2` it is 181 °C; for `COc1cc(OC)nc(NCC2COC3(CCC(C(C)(C)C)CC3)O2)n1` (centres undefined) it is 76 to 106 °C. To `COc1ccc(C(=Cn2cc[nH]c2=O)CC(=O)O)cc1OC1CCCC1` belongs 194 °C. Compound `CNC(=C[N+](=O)[O-])NCCCCCCCCCCCCN` gave a melting point of 123 to 125 °C.

`CN1CCN(CCc2ccc(Nc3ncc4c(n3)-c3ccccc3C(c3ccc(Cl)c(Cl)c3)C4)cc2)CC1` (centres undefined): the melting point fell in the range of 119 to 121 °C. To `CCC(CC)c1[nH]c(C)c(C(C)=O)c1C` belongs 186 to 189 °C; to `COc1ccc2c(c1)[nH]c1c(C)c(OS(=O)(=O)c3cccc4c(N(C)C)cccc34)ccc12`, 174 °C; to `COc1ccc2c(n1)c(CCNC(C)=O)c1n2Cc2ccccc2-1`, 96 to 97 °C. In turn, `Cc1c(N2CC[C@@H](N)[C@H](C)C2)c(F)cc2c(=O)c(C(=O)O)cn(C3CC3)c12` (relative stereo) registered a melting point of 223 to 225 °C. The figure for `CC(C)(C)CC(C)(C)c1ccc2c(c1)C(=O)NS2(=O)=O` is 213 to 215 °C; for `COc1cc(N)ccc1CN1C(=O)C(C)(c2ccccc2Cl)c2cc(Cl)ccc21` (centres undefined) it is 232 °C. In turn, `CC(C)(C)NCC(O)COc1ccc(-c2csnn2)cc1` (centres undefined) came in with a melting point of 124 to 125 °C. To `CC#CCOc1ccc(S(=O)(=O)N[C@H]2CCCC[C@H]2C(=O)NO)cc1` belongs 140 to 145 °C.

Regarding `Cc1ccc(-n2ncc(-c3ccc(S(C)(=O)=O)cc3)cc2=O)cc1`, the melting point lay in the range of 190 to 192 °C. The figure for `O=C1CC(c2ccc(Cl)cc2)ON1CC(O)CN1CCOCC1` (centres undefined) is 121 to 123 °C; for `CCOc1nc(=O)n(C(=O)NC(Cl)=C(Cl)Cl)s1` it is 123 °C.

Compound `CCCC(O)c1cc2c(cc1C)OCO2` (centres undefined) registered a melting point of 65.5 to 66.5 °C. To `Cc1cc2nc(Cl)c3cccnc3n2n1` belongs 202 °C; to `CS(=O)(=O)c1ccc(-c2coc(=O)n2-c2ccc(Br)cc2)cc1`, 217 to 219 °C. Compound `COCC(COC)Oc1cc(Oc2ccc(S(C)(=O)=O)nc2)cc2cc(C3=NCC(CC(N)=O)S3)[nH]c12` (centres undefined) displayed a melting point of 172 to 173 °C. The figure for `Oc1ccc(C2CCC(=CCC3OCCO3)CC2)cc1` (centres undefined) is 126 °C; for `CCCN(CCC)C(=O)c1cc(C(=O)N[C@@H](Cc2cc(F)cc(F)c2)[C@H](O)CNCc2cccc(CC)c2)cc(-c2ncco2)c1` it is 65 to 67 °C; for `COc1cc(/C=C/C(=O)CC(=O)/C=C/c2cccc(O)c2OC)ccc1O` it is 152 to 155 °C. Compound `COc1ccc(C(CC(N)=O)N2C(=O)c3ccccc3C2=O)cc1` (centres undefined) showed a melting point of 183 to 188 °C.

For the compound `C=CCNC(=O)COc1ccc(C2=NNC(=O)CC2)cc1Cl`, the melting point was 145 to 146 °C. Turning to `CCOCOc1cccc(C(CC#N)N2Cc3c(Cl)ccc(NC(=O)C4CC4)c3C2=O)c1` (centres undefined), the melting point was in the range of 200 to 202 °C. For `CCc1cc(C(=O)c2ccccc2Cl)c(-n2c(C)nnc2CCl)s1`, the melting point lay within 109 to 110 °C. Compound `COc1cc2nc(N3CCc4c(cccc4S(=O)(=O)N4CCN(C)CC4)C3)[nH]c(=O)c2cc1OC` gave a melting point of 230 to 237 °C. To `Cc1oc(-c2ccccc2)nc1Cc1cc2cc(CC3OC(=O)NC3=O)ccc2o1` (centres undefined) belongs 190 to 191 °C. The compound `CCCCCCCCON1C(C)(C)CC(OC(=O)COc2ccc(-c3nc(-c4ccc(C)cc4C)nc(-c4ccc(C)cc4C)n3)c(O)c2)CC1(C)C` yielded a melting point of 86 to 90 °C. Take `O=C1c2ccc([N+](=O)[O-])cc2C(=O)c2c(O)ccc(O)c21`: the melting point lay in the range of 226 to 228 °C. The figure for `Nc1ncnc2c1ncn2OCC(CO)SCP(=O)(O)O` (centres undefined) is 195 to 197 °C.

In the case of `CCn1c(COC(N)=O)nc(C2CC2)c1Sc1cc(C#N)cc(C#N)c1`, the melting point lay within 170 to 172 °C.

In turn, `CCCCCCCCCCCCSc1ccc2nn(-c3cc(C(C)(C)C)cc(C(C)(C)C)c3O)nc2c1` displayed a melting point of 62 to 64 °C. Turning to `CNc1ccc(-c2ocnc2-c2cc(OC)cc(OC)c2)cc1F`, the melting point was 140 to 142 °C.
